Source: PubChem BioAssay AID2060898 (Molecular Pharmacology Branch, DTP, NCI, 2025)

System: 616215-338-R-J1-PDC complex spheroid viability
Test: Anticancer human tumor 616215-338-R-J1-PDC patient-derived colon adenocarcinoma cell line growth inhibition [RAS]
Conditions: for IC50: curve of first compound; for viability, T/C: stronger effect = lower value
Method in brief: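 Agents were tested in combination matrices in half-log decrements from a top concentration at or near clinical Cmax (10 microM if undetermined). Targets were multi-cell spheroids of tumour lines plus HUVEC and MSC stromal cells.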

[1] = second compound 0.000949 µM, first compound 0.0316 µM
[2] = second compound 0.000949 µM, first compound 0.1 µM
[3] = second compound 0.000949 µM, first compound 0.316 µM
[4] = second compound 0.000949 µM, first compound 1 µM
[5] = second compound 0.003 µM, first compound 0.0316 µM
[6] = second compound 0.003 µM, first compound 0.1 µM
[7] = second compound 0.003 µM, first compound 0.316 µM
[8] = second compound 0.003 µM, first compound 1 µM
[9] = second compound 0.00949 µM, first compound 0.0316 µM
[10] = second compound 0.00949 µM, first compound 0.1 µM
[11] = second compound 0.00949 µM, first compound 0.316 µM
[12] = second compound 0.00949 µM, first compound 1 µM
[13] = second compound 0.03 µM, first compound 0.0316 µM
[14] = second compound 0.03 µM, first compound 0.1 µM
[15] = second compound 0.03 µM, first compound 0.316 µM
[16] = second compound 0.03 µM, first compound 1 µM
[17] = second compound 0.0949 µM, first compound 0.0316 µM
[18] = second compound 0.0949 µM, first compound 0.1 µM
[19] = second compound 0.0949 µM, first compound 0.316 µM
[20] = second compound 0.0949 µM, first compound 1 µM
[21] = second compound 0.3 µM, first compound 0.0316 µM
[22] = second compound 0.3 µM, first compound 0.1 µM
[23] = second compound 0.3 µM, first compound 0.316 µM
[24] = second compound 0.3 µM, first compound 1 µM
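Note: spheroids exposed to agents for seven days before viability readout.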
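Throughout, for viability, T/C: 100% = DMSO vehicle control viability.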

## CC(=O)OC12COC1CC(O)C1(C)C(=O)C(O)C3=C(C)C(OC(=O)C(O)C(NC(=O)OC(C)(C)C)c4ccccc4)CC(O)(C(OC(=O)c4ccccc4)C21)C3(C)C (centres undefined) + CCn1c(-c2cc(N3CCN(C)CC3)cnc2C(C)OC)c2c3cc(ccc31)-c1csc(n1)CC(NC(=O)C1CC1C)C(=O)N1CCCC(N1)C(=O)OCC(C)(C)C2
Second compound 0.000949 µM
  IC50: < 31.6 nM
Second compound 0.003 µM
  IC50: < 31.6 nM
Second compound 0.00949 µM
  IC50: < 31.6 nM
Second compound 0.03 µM
  IC50: < 31.6 nM
Second compound 0.0949 µM
  IC50: < 31.6 nM
Second compound 0.3 µM
  IC50: < 31.6 nM
[1]
  viability, T/C: 27.1%
[2]
  viability, T/C: 20.3%
[3]
  viability, T/C: 18.9%
[4]
  viability, T/C: 19.9%
Second compound 0.000949 µM, first compound 3.16 µM
  viability, T/C: 20.7%
Second compound 0.000949 µM, first compound 10 µM
  viability, T/C: 24%
[5]
  viability, T/C: 22.3%
[6]
  viability, T/C: 18.3%
[7]
  viability, T/C: 15.9%
[8]
  viability, T/C: 19.3%
Second compound 0.003 µM, first compound 3.16 µM
  viability, T/C: 18.8%
Second compound 0.003 µM, first compound 10 µM
  viability, T/C: 24%
[9]
  viability, T/C: 18.5%
[10]
  viability, T/C: 16.4%
[11]
  viability, T/C: 13.3%
[12]
  viability, T/C: 12%
Second compound 0.00949 µM, first compound 3.16 µM
  viability, T/C: 17.2%
Second compound 0.00949 µM, first compound 10 µM
  viability, T/C: 18.7%
[13]
  viability, T/C: 15.6%
[14]
  viability, T/C: 13.4%
[15]
  viability, T/C: 13.1%
[16]
  viability, T/C: 13.2%
Second compound 0.03 µM, first compound 3.16 µM
  viability, T/C: 14.5%
Second compound 0.03 µM, first compound 10 µM
  viability, T/C: 16.8%
[17]
  viability, T/C: 15.4%
[18]
  viability, T/C: 12.4%
[19]
  viability, T/C: 10.8%
[20]
  viability, T/C: 13.4%
Second compound 0.0949 µM, first compound 3.16 µM
  viability, T/C: 13.5%
Second compound 0.0949 µM, first compound 10 µM
  viability, T/C: 14%
[21]
  viability, T/C: 14.9%
[22]
  viability, T/C: 13.3%
[23]
  viability, T/C: 10.7%
[24]
  viability, T/C: 11.9%
Second compound 0.3 µM, first compound 3.16 µM
  viability, T/C: 13.9%
Second compound 0.3 µM, first compound 10 µM
  viability, T/C: 16.3%

## Nc1ccn(C2OC(CO)C(O)C2(F)F)c(=O)n1 (centres undefined) + CCn1c(-c2cc(N3CCN(C)CC3)cnc2C(C)OC)c2c3cc(ccc31)-c1csc(n1)CC(NC(=O)C1CC1C)C(=O)N1CCCC(N1)C(=O)OCC(C)(C)C2
Second compound 0.000949 µM
  IC50: 11.5 nM
Second compound 0.003 µM
  IC50: 7.36 nM
Second compound 0.00949 µM
  IC50: 3.62 nM
Second compound 0.03 µM
  IC50: < 3.16 nM
Second compound 0.0949 µM
  IC50: < 3.16 nM
Second compound 0.3 µM
  IC50: < 3.16 nM
Second compound 0.000949 µM, first compound 0.00316 µM
  viability, T/C: 96.2%
Second compound 0.000949 µM, first compound 0.01 µM
  viability, T/C: 53.7%
[1]
  viability, T/C: 23.7%
[2]
  viability, T/C: 13.8%
[3]
  viability, T/C: 13.5%
[4]
  viability, T/C: 15.7%
Second compound 0.003 µM, first compound 0.00316 µM
  viability, T/C: 80.8%
Second compound 0.003 µM, first compound 0.01 µM
  viability, T/C: 38.6%
[5]
  viability, T/C: 20.2%
[6]
  viability, T/C: 10.3%
[7]
  viability, T/C: 11.4%
[8]
  viability, T/C: 11%
Second compound 0.00949 µM, first compound 0.00316 µM
  viability, T/C: 52.9%
Second compound 0.00949 µM, first compound 0.01 µM
  viability, T/C: 28.8%
[9]
  viability, T/C: 19.2%
[10]
  viability, T/C: 9.65%
[11]
  viability, T/C: 12.4%
[12]
  viability, T/C: 10.4%
Second compound 0.03 µM, first compound 0.00316 µM
  viability, T/C: 33.8%
Second compound 0.03 µM, first compound 0.01 µM
  viability, T/C: 25.8%
[13]
  viability, T/C: 18.5%
[14]
  viability, T/C: 9.6%
[15]
  viability, T/C: 8.72%
[16]
  viability, T/C: 9.03%
Second compound 0.0949 µM, first compound 0.00316 µM
  viability, T/C: 31.6%
Second compound 0.0949 µM, first compound 0.01 µM
  viability, T/C: 22.4%
[17]
  viability, T/C: 17.2%
[18]
  viability, T/C: 7.8%
[19]
  viability, T/C: 9.83%
[20]
  viability, T/C: 8.16%
Second compound 0.3 µM, first compound 0.00316 µM
  viability, T/C: 37.6%
Second compound 0.3 µM, first compound 0.01 µM
  viability, T/C: 25.7%
[21]
  viability, T/C: 21.4%
[22]
  viability, T/C: 12.1%
[23]
  viability, T/C: 9.28%
[24]
  viability, T/C: 8.49%
